Assay: xn = mol fraction of the nth substance listed
Details: 101 kPa, Liquid; for speed of sound: Pulse-echo method; for mass density: Vibrating tube method

COCCO [2-methoxyethan-1-ol] + CCCCCCCCCCO
Details | mass density, 293.15 K [kg/m3] | mass density, 298.15 K [kg/m3] | mass density, 303.15 K [kg/m3] | mass density, 308.15 K [kg/m3] | speed of sound, 293.15 K [m/s] | speed of sound, 298.15 K [m/s] | speed of sound, 303.15 K [m/s] | speed of sound, 308.15 K [m/s]
x1 = 0.0606 | 832.95 | 829.505 | 826.05 | 822.58 | 1393.1 | 1375.9 | 1359 | 1342.2
x1 = 0.1173 | 835.952 | 832.457 | 828.982 | 825.482 | 1389.5 | 1372.4 | 1355.4 | 1338.6
x1 = 0.1631 | 838.564 | 835.06 | 831.539 | 828.008 | 1386.6 | 1369.5 | 1352.6 | 1335.8
x1 = 0.1934 | 840.414 | 836.878 | 833.342 | 829.786 | 1384.7 | 1367.5 | 1350.6 | 1333.8
x1 = 0.251 | 844.262 | 840.695 | 837.111 | 833.512 | 1380.8 | 1363.7 | 1346.8 | 1330
x1 = 0.3025 | 847.887 | 844.28 | 840.662 | 837.024 | 1377.5 | 1360.4 | 1343.5 | 1326.7
x1 = 0.413 | 856.97 | 853.268 | 849.553 | 845.819 | 1370.2 | 1353.1 | 1336.2 | 1319.4
x1 = 0.517 | 867.321 | 863.518 | 859.697 | 855.861 | 1363.6 | 1346.6 | 1329.6 | 1312.8
x1 = 0.6285 | 880.912 | 876.98 | 873.028 | 869.056 | 1356.6 | 1339.6 | 1322.6 | 1305.7
x1 = 0.7087 | 892.252 | 888.913 | 884.854 | 880.773 | 1352.5 | 1335.3 | 1318.4 | 1301.5
x1 = 0.7965 | 909.015 | 904.836 | 900.644 | 896.427 | 1349.5 | 1332.3 | 1315.3 | 1298.3
x1 = 0.9382 | 944.534 | 940.097 | 935.63 | 931.137 | 1352.5 | 1335.3 | 1318.2 | 1301.1

COCCO [2-methoxyethan-1-ol] + CCCCCCCCO
Details | mass density, 293.15 K [kg/m3] | mass density, 298.15 K [kg/m3] | mass density, 303.15 K [kg/m3] | mass density, 308.15 K [kg/m3] | speed of sound, 293.15 K [m/s] | speed of sound, 298.15 K [m/s] | speed of sound, 303.15 K [m/s] | speed of sound, 308.15 K [m/s]
x1 = 0.0535 | 828.636 | 825.138 | 821.625 | 818.089 | 1362 | 1345 | 1328.2 | 1311.5
x1 = 0.1073 | 832.242 | 828.704 | 825.153 | 821.583 | 1359.3 | 1342.3 | 1325.5 | 1308.9
x1 = 0.1407 | 834.668 | 831.104 | 827.528 | 823.931 | 1357.9 | 1340.7 | 1323.9 | 1307.2
x1 = 0.2002 | 839.135 | 835.528 | 831.905 | 828.261 | 1354.9 | 1337.9 | 1321.1 | 1304.5
x1 = 0.2659 | 844.444 | 840.786 | 837.111 | 833.414 | 1351.9 | 1334.9 | 1318.1 | 1301.4
x1 = 0.2973 | 847.294 | 843.606 | 839.904 | 836.178 | 1350.5 | 1333.6 | 1316.8 | 1300.1
x1 = 0.3559 | 852.613 | 848.877 | 845.122 | 841.346 | 1348 | 1331.1 | 1314.2 | 1297.5
x1 = 0.5233 | 870.97 | 870.97 | 863.148 | 859.203 | 1342.3 | 1325.3 | 1308.5 | 1296.6
x1 = 0.6059 | 881.954 | 867.068 | 873.942 | 869.902 | 1340.4 | 1323.4 | 1306.5 | 1289.7
x1 = 0.7126 | 898.662 | 877.961 | 890.382 | 886.205 | 1339.7 | 1322.6 | 1305.7 | 1288.8
x1 = 0.7903 | 912.569 | 908.335 | 904.076 | 899.757 | 1340.9 | 1323.9 | 1306.9 | 1290
x1 = 0.9202 | 942.675 | 938.234 | 933.772 | 929.291 | 1349.3 | 1332.2 | 1315 | 1298

COCCO [2-methoxyethan-1-ol] + CCCCCCO
Details | mass density, 293.15 K [kg/m3] | mass density, 298.15 K [kg/m3] | mass density, 303.15 K [kg/m3] | mass density, 308.15 K [kg/m3] | speed of sound, 293.15 K [m/s] | speed of sound, 298.15 K [m/s] | speed of sound, 303.15 K [m/s] | speed of sound, 308.15 K [m/s]
x1 = 0.0538 | 822.792 | 819.173 | 815.536 | 811.869 | 1319.2 | 1302.3 | 1285.5 | 1268.9
x1 = 0.1042 | 828.127 | 824.464 | 820.781 | 817.068 | 1318.3 | 1301.4 | 1284.6 | 1267.9
x1 = 0.1509 | 831.771 | 828.075 | 824.358 | 820.611 | 1317.7 | 1300.8 | 1284 | 1267.4
x1 = 0.2055 | 837.788 | 834.043 | 830.27 | 826.473 | 1317.1 | 1300.2 | 1283.4 | 1266.8
x1 = 0.2405 | 841.087 | 837.314 | 833.515 | 829.687 | 1316.7 | 1299.8 | 1283.1 | 1266.4
x1 = 0.2987 | 847.639 | 843.81 | 839.961 | 836.084 | 1316.3 | 1299.5 | 1282.7 | –
x1 = 0.4088 | 860.712 | 856.785 | 852.828 | 848.853 | 1317.3 | 1300.5 | 1283.6 | 1266.9
x1 = 0.5134 | 874.132 | 870.1 | 866.048 | 861.965 | 1318.6 | 1301.7 | 1284.8 | 1268.1
x1 = 0.5991 | 886.614 | 882.495 | 878.355 | 874.185 | 1321.2 | 1304.2 | 1287.3 | 1270.6
x1 = 0.6915 | 901.59 | 897.37 | 893.13 | 888.857 | 1325.9 | 1308.8 | 1291.9 | 1275
x1 = 0.805 | 922.045 | 917.699 | 913.334 | 908.936 | 1334.2 | 1317.1 | 1300.1 | 1283.2
x1 = 0.9039 | 942.54 | 938.079 | 933.591 | 929.076 | 1345 | 1327.9 | 1310.8 | 1293.7
